The source of these data is ChEMBL document CHEMBL6153048, “Synthesis and pharmacological evaluation of natural product diphyllin derivatives against head and neck squamous cell carcinoma” (Eur J Med Chem, 2025).

Data set [1] concerns CAL-27. Put plainly: Effect on epithelial cell proliferation in human CAL-27 cells assessed as regulation of cell proliferation related gene expression at 1 nM incubated for 48 hrs by GO analysis. In kind it is functional, cell-based.
The subject of data set [2] is CAL-27. Put plainly: Induction of apoptosis in human CAL-27 cells assessed as early apoptotic cells at 1000 nM incubated for 72 hrs by Annexin V-FITC/propidium iodide staining based flow cytometry analysis (reference value: 7.74%). In kind it is functional. In general terms: In flow cytometry, cells or beads pass a laser one at a time.
In data set [3] the test system is CAL-27. Kind of data set: Effect on apoptosis in human CAL-27 cells assessed as regulation of gene expression at 1 nM incubated for 48 hrs by GSEA analysis. In kind it is functional, cell-based.
The test system of data set [4] is CAL-27. Kind of data set: Induction of apoptosis in human CAL-27 cells assessed as early apoptotic cells at 10 nM incubated for 72 hrs by Annexin V-FITC/propidium iodide staining based flow cytometry analysis (reference value: 7.74%). In kind it is functional.
Data set [5] in a line: Toxicity in BALB/c mouse xenografted with human CAL-27 cells assessed as body weight at 0.3 mg/kg, iv treated four times a week for 30 days. Particulars: in vivo, 720 h, time 30 day. In kind it is organism-based.
A further data set relates to A549. Put plainly: Cytotoxicity against human A549 cells incubated for 72 hrs by MTT assay. In kind it is functional, cell-based. The settings on record: A549, 72 h.
In data set [6] the test system is CAL-27. Kind of data set: Antitumor activity against human CAL-27 cells xenografted in BALB/c mouse model assessed as tumor volume change at 0.3 mg/kg, iv treated four times a week for 30 days. The data set is classed as functional. Particulars: CAL-27, 720 h, time 30 day, read-out: TGI. (In xenograft studies the graft and the host belong to different species.)

Data set [7] concerns CAL-27. Kind of data set: Induction of apoptosis in human CAL-27 cells assessed as viable cells at 10 nM incubated for 72 hrs by Annexin V-FITC/propidium iodide staining based flow cytometry analysis (reference value: 88.23%). The data set is classed as functional. The settings on record: read-out: Activity.
Data set [8] relates to CAL-27. Kind of data set: Induction of apoptosis in human CAL-27 cells assessed as late apoptotic cells at 1 nM incubated for 72 hrs by Annexin V-FITC/propidium iodide staining based flow cytometry analysis (reference value: 2.57%). The data set is classed as functional.
In data set [9] the test system is CAL-27. Kind of data set: Induction of apoptosis in human CAL-27 cells assessed as viable cells at 100 nM incubated for 72 hrs by Annexin V-FITC/propidium iodide staining based flow cytometry analysis (reference value: 88.23%). The data set is classed as functional. The settings on record: read-out: Activity.

Structures are written as SMILES. Active and inactive are the calls of the source. The rule behind the calls is not given here.

What is called IC50 is the concentration that gives 50% inhibition. On to `COc1cc2c(O[C@@H]3O[C@@H]4CO[C@@H](c5ccsc5)O[C@H]4[C@H](O)[C@H]3O)c3c(c(-c4ccc5c(c4)OCO5)c2cc1OC)C(=O)OC3`, for which the result with CAL-27 [1] and in the data set with CAL-27 [3] was Active. The Activity with CAL-27 [2] was 25.35%; in the data set on CAL-27 [4], 16.27%; in data set [5], “Non-toxic”. In the data set with A549, this compound yielded a half-inhibitory concentration (IC50) of 117 nM. For the same compound, the inhibition in vivo at 0.3 mg/kg with CAL-27 [6] is 29.2%.

For the compound `COc1cc2c(O)c3c(c(-c4ccc5c(c4)OCO5)c2cc1OC)C(=O)OC3` [DIPHYLLIN], the viability at 0.01 µM in the data set on CAL-27 [7] amounted to 94.8%. The Activity with CAL-27 [8] is reported as 5.83%. The viability at 0.1 µM in the data set with CAL-27 [9] is 92.5%.
